# Data taken from patent US20120238549A1, “Nuclear Hormone Receptor Modulators” (ABBOTT LABORATORIES, priority 2011, published 2012).
# Target: T1, Glucocorticoid Receptor (GR) (Homo sapiens, UniProt P04150)
# T1 construct: purchased Invitrogen P2893
# T1 sequence (P04150 1-777): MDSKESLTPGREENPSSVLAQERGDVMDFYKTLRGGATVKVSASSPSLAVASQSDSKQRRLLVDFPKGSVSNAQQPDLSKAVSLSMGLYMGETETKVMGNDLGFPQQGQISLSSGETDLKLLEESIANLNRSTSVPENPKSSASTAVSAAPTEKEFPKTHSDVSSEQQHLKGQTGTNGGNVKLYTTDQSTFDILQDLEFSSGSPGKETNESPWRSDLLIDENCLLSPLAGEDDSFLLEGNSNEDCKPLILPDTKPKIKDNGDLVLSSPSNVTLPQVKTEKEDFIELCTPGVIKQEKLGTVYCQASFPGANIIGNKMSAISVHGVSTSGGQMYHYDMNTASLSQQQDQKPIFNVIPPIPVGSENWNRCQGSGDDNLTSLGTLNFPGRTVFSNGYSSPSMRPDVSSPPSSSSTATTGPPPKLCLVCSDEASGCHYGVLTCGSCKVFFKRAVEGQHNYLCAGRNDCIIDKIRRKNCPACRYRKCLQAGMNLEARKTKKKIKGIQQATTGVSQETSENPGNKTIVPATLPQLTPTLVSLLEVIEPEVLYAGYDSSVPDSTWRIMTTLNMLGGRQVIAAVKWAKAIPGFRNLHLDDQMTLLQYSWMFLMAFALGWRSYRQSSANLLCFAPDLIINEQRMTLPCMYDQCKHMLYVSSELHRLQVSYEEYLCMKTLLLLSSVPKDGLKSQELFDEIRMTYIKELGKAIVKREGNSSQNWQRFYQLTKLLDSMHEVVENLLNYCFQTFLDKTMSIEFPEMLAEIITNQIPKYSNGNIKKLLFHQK
# Assay: GR Florescence Polarization Assay (PolarScreen Glucocorticoid Receptor Competitor Assay, Red)
# Conditions: Fluorescense polarization binding ranges; competition with fluorescent glucocorticoid, incubated overnight at 4° C.
# In short: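 Competitive fluorescence polarization using fluorescent glucocorticoid tracer and human GR in kit buffer. Compounds serially diluted 1:4 in DMSO, incubated with tracer and GR overnight at 4 °C before polarization read.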
row,Structure (SMILES),IC50 [nM]
1,"Cc1ncccc1NC(=O)c1ccc2c(c1)CCC[C@H]1CC(C)(O)CC[C@]21Cc1ccccc1 (stereo in doubt) [Example 91, (7aS,9R,11aR)-11a-benzyl-9-hydroxy-9-methyl-6,7,7a,8,9,10,11,11a-octahydro-5H-dibenzo[a,c]cycloheptene-3-carboxylic acid (2-methyl-pyridin-3-yl)-amide]",100 to 1000
2,"COc1ccc2c(c1)CCCC1=CC(=O)CCC12Cc1ccccc1 (centres unmarked) [Example 1, 11b-Benzyl-9-methoxy-1,2,5,6,7,11b-hexahydro-dibenzo[a,c]cyclohepten-3-one]",100 to 1000
3,"O=C1C=C2CCCc3cc(O)ccc3C2(Cc2ccccc2)CC1 (centres unmarked) [Example 2, 11b-Benzyl-9-hydroxy-1,2,5,6,7,11b-hexahydro-dibenzo[a,c]cyclohepten-3-one]",100 to 1000
4,"O=C1CC[C@@]2(Cc3ccccc3)c3ccc(O)cc3CCC[C@H]2C1.O=C1CC[C@]2(Cc3ccccc3)c3ccc(O)cc3CCC[C@@H]2C1 [Example 4, (4aS,11bS)-11b-Benzyl-9-hydroxy-1,2,4,4a,5,6,7,11b-octahydro-dibenzo[a,c]cyclohepten-3-one; compound with (4aR,11bR)-11b-benzyl-9-hydroxy-1,2,4,4a,5,6,7,11b-octahydro-dibenzo[a,c]cyclohepten-3-one]",100 to 1000
5,"O=C1CC[C@@]2(Cc3ccccc3)c3ccc(O)cc3CCC[C@@H]2C1.O=C1CC[C@]2(Cc3ccccc3)c3ccc(O)cc3CCC[C@H]2C1 [Example 5, (4aR,11bS)-11b-benzyl-9-hydroxy-1,2,4,4a,5,6,7,11b-octahydro-dibenzo[a,c]cyclohepten-3-one; compound with (4aS,11bR)-11b-benzyl-9-hydroxy-1,2,4,4a,5,6,7,11b-octahydro-dibenzo[a,c]cyclohepten-3-one]",100 to 1000
6,"Cc1ncccc1NC(=O)c1ccc2c(c1)CCC[C@@H]1C[C@](C)(O)CC[C@@]21Cc1ccccc1.Cc1ncccc1NC(=O)c1ccc2c(c1)CCC[C@H]1C[C@@](C)(O)CC[C@]21Cc1ccccc1 [Example 9, (7aR,9R,11aS)-11a-Benzyl-9-hydroxy-9-methyl-6,7,7a,8,9,10,11,11a-octahydro-5H-dibenzo[a,c]cycloheptene-3-carboxylic acid (2-methyl-pyridin-3-yl)-amide; compound with (7aS,9S,11aR)-11a-benzyl-9-hydroxy-9-methyl-6,7,7a,8,9,10,11,11a-octahydro-5H-dibenzo[a,c]cycloheptene-3-carboxylic acid (2-methyl-pyridin-3-yl)-amide]",< 100
7,"Cc1ncccc1NC(=O)c1ccc2c(c1)CCC[C@@H]1C[C@@](C)(O)CC[C@@]21Cc1ccccc1.Cc1ncccc1NC(=O)c1ccc2c(c1)CCC[C@H]1C[C@](C)(O)CC[C@]21Cc1ccccc1 [Example 10, (7aR,9S,11aS)-11a-benzyl-9-hydroxy-9-methyl-6,7,7a,8,9,10,11,11a-octahydro-5H-dibenzo[a,c]cycloheptene-3-carboxylic acid (2-methyl-pyridin-3-yl)-amide; compound with (7aS,9R,11aR)-11a-benzyl-9-hydroxy-9-methyl-6,7,7a,8,9,10,11,11a-octahydro-5H-dibenzo[a,c]cycloheptene-3-carboxylic acid (2-methyl-pyridin-3-yl)-amide]",< 100
8,"CC[C@@]1(O)CC[C@@]2(Cc3ccccc3)c3ccc(C(=O)Nc4cccnc4C)cc3CCC[C@H]2C1.CC[C@]1(O)CC[C@]2(Cc3ccccc3)c3ccc(C(=O)Nc4cccnc4C)cc3CCC[C@@H]2C1 [Example 12, (7aS,9R,11aS)-11a-Benzyl-9-ethyl-9-hydroxy-6,7,7a,8,9,10,11,11a-octahydro-5H-dibenzo[a,c]cycloheptene-3-carboxylic acid (2-methyl-pyridin-3-yl)-amide; compound with (7aR,9S,11aR)-11a-benzyl-9-ethyl-9-hydroxy-6,7,7a,8,9,10,11,11a-octahydro-5H-dibenzo[a,c]cycloheptene-3-carboxylic acid (2-methyl-pyridin-3-yl)-amide]",< 100
9,"CC[C@@]1(O)CC[C@]2(Cc3ccccc3)c3ccc(C(=O)Nc4cccnc4C)cc3CCC[C@@H]2C1.CC[C@]1(O)CC[C@@]2(Cc3ccccc3)c3ccc(C(=O)Nc4cccnc4C)cc3CCC[C@H]2C1 [Example 13, (7aS,9S,11aS)-11a-benzyl-9-ethyl-9-hydroxy-6,7,7a,8,9,10,11,11a-octahydro-5H-dibenzo[a,c]cycloheptene-3-carboxylic acid (2-methyl-pyridin-3-yl)-amide; compound with (7aR,9R,11aR)-11a-benzyl-9-ethyl-9-hydroxy-6,7,7a,8,9,10,11,11a-octahydro-5H-dibenzo[a,c]cycloheptene-3-carboxylic acid (2-methyl-pyridin-3-yl)-amide]",100 to 1000
10,"Cc1ncccc1NC(=O)c1ccc2c(c1)NC(=O)C[C@@H]1C[C@@](O)(C(F)(F)F)CC[C@@]21Cc1ccccc1 [Example 20, (7aS,9R,11aS)-11a-Benzyl-9-hydroxy-N-(2-methylpyridin-3-yl)-6-oxo-9-(trifluoromethyl)-6,7,7a,8,9,10,11,11a-octahydro-5H-dibenzo[b,d]azepine-3-carboxamide]",100 to 1000
11,"Cc1ncccc1NC(=O)c1ccc2c(c1)NC(=O)C[C@H]1CC(O)(C(F)(F)F)CC[C@@]21Cc1ccccc1 (stereo partly drawn) [Example 21, (7aR,11aS)-11a-Benzyl-9-hydroxy-N-(2-methylpyridin-3-yl)-6-oxo-9-(trifluoromethyl)-6,7,7a,8,9,10,11,11a-octahydro-5H-dibenzo[b,d]azepine-3-carboxamide]",> 10000
12,"Cc1ncccc1NC(=O)c1ccc2c(c1)C(=O)NC[C@H]1CC(O)(C(F)(F)F)CC[C@@]21Cc1ccccc1 (stereo partly drawn) [Example 22, (4aS,11bS)-11b-benzyl-3-hydroxy-N-(2-methylpyridin-3-yl)-7-oxo-3-(trifluoromethyl)-2,3,4,4a,5,6,7,11b-octahydro-1H-dibenzo[c,e]azepine-9-carboxamide]",> 10000
13,"CCC[C@@]12CC[C@](O)(CC)C[C@@H]1CCCc1cc(C(=O)Nc3cccnc3C)ccc12.CCC[C@]12CC[C@@](O)(CC)C[C@H]1CCCc1cc(C(=O)Nc3cccnc3C)ccc12 [Example 26, (7aR,9S,11aS)-9-Ethyl-9-hydroxy-11a-propyl-6,7,7a,8,9,10,11,11a-octahydro-5H-dibenzo[a,c]cycloheptene-3-carboxylic acid (2-methyl-pyridin-3-yl)-amide; compound with (7aS,9R,11aR)-9-ethyl-9-hydroxy-11a-propyl-6,7,7a,8,9,10,11,11a-octahydro-5H-dibenzo[a,c]cycloheptene-3-carboxylic acid (2-methyl-pyridin-3-yl)-amide]",< 100
14,"CCC[C@@]12CC[C@@](O)(CC)C[C@@H]1CCCc1cc(C(=O)Nc3cccnc3C)ccc12.CCC[C@]12CC[C@](O)(CC)C[C@H]1CCCc1cc(C(=O)Nc3cccnc3C)ccc12 [Example 27, (7aR,9R,11aS)-9-ethyl-9-hydroxy-11a-propyl-6,7,7a,8,9,10,11,11a-octahydro-5H-dibenzo[a,c]cycloheptene-3-carboxylic acid (2-methyl-pyridin-3-yl)-amide; compound with (7aS,9S,11aR)-9-ethyl-9-hydroxy-11a-propyl-6,7,7a,8,9,10,11,11a-octahydro-5H-dibenzo[a,c]cycloheptene-3-carboxylic acid (2-methyl-pyridin-3-yl)-amide]",1000 to 10000
15,"CCC[C@@]12CC[C@](O)(Cc3ccccc3)C[C@@H]1CCCc1cc(C(=O)Nc3cccnc3C)ccc12.CCC[C@]12CC[C@@](O)(Cc3ccccc3)C[C@H]1CCCc1cc(C(=O)Nc3cccnc3C)ccc12 [Example 34, (7aS,9R,11aR)-9-Benzyl-9-hydroxy-11a-propyl-6,7,7a,8,9,10,11,11a-octahydro-5H-dibenzo[a,c]cycloheptene-3-carboxylic acid (2-methyl-pyridin-3-yl)-amide; compound with (7aR,9S,11aS)-9-benzyl-9-hydroxy-11a-propyl-6,7,7a,8,9,10,11,11a-octahydro-5H-dibenzo[a,c]cycloheptene-3-carboxylic acid (2-methyl-pyridin-3-yl)-amide]",< 100
16,CCC[C@@]12CC[C@@](O)(Cc3ccccc3)C[C@@H]1CCCc1cc(C(=O)Nc3cccnc3C)ccc12.CCC[C@]12CC[C@](O)(Cc3ccccc3)C[C@H]1CCCc1cc(C(=O)Nc3cccnc3C)ccc12 [Example 35],1000 to 10000
17,"O=C1CC[C@@]2(Cc3ccccc3)C(=O)CCCC[C@H]2C1.O=C1CC[C@]2(Cc3ccccc3)C(=O)CCCC[C@@H]2C1 [Example 36, (4aS,9aS)-4a-Benzyl-octahydro-benzocycloheptene-2,5-dione; compound with (4aR,9aR)-4a-benzyl-octahydro-benzocycloheptene-2,5-dione]",> 10000
